# In patent US12643871B2, “Aryl formamide compound containing chiral sulfur oxide or salt thereof, preparation method, herbicidal composition and use thereof” (Qingdao Kingagroot Chemical Compound Co., Ltd., priority 2019, dated 2026):
# Columns and labels:
# Experiment in all cases: Weeding effect in post-emergence stage
# Type in all cases: in vivo
# Settings in all cases: 250 g/ha; 2 leaf stage; 15 days after application; fresh weight control rate
# Digitaria sanguinalis = system: Digitaria sanguinalis
# Summary of the method: (§1)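 Activity graded 0 (<5%) to 5 (>85%) from fresh-weight control rate, averaged over three repeats, 15 days after a spray-tower application. Plants at 2-leaf stage (2 weeks post-sowing) received 15–500 g/ha of compound formulated in acetone, Tween 80 and methyl oleate synergist (1.5 L/ha).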
# Echinochloa crusgali = system: Echinochloa crusgali
# Summary of the method: as §1
# Amaranthus retroflexus = system: Amaranthus retroflexus
# Summary of the method: as §1
# Abutilon theophrasti = system: Abutilon theophrasti
# Summary of the method: as §1
# Setaria viridis = system: Setaria viridis
# Summary of the method: as §1
SMILES,"weeding effect in post-emergence stage, activity level (growth control rate), Digitaria sanguinalis (Digitaria sanguinalis)","weeding effect in post-emergence stage, activity level (growth control rate), Echinochloa crusgali (Echinochloa crusgali)","weeding effect in post-emergence stage, activity level (growth control rate), Amaranthus retroflexus (Amaranthus retroflexus)","weeding effect in post-emergence stage, activity level (growth control rate), Abutilon theophrasti (Abutilon theophrasti)","weeding effect in post-emergence stage, activity level (growth control rate), Setaria viridis (Setaria viridis)"
COc1c(C(=O)Nc2nnc(C)o2)ccc(C(F)(F)F)c1[S@@+]([O-])C(F)(C(F)(F)F)C(F)(F)F [Compound 330],5 (Level 5: growth control rate is above 85%),5 (Level 5: growth control rate is above 85%),5 (Level 5: growth control rate is above 85%),5 (Level 5: growth control rate is above 85%),5 (Level 5: growth control rate is above 85%)
COc1c(C(=O)Nc2nnc(C)o2)ccc(C(F)(F)F)c1[S@+]([O-])CCC(F)(C(F)(F)F)C(F)(F)F [Compound 331],5 (Level 5: growth control rate is above 85%),5 (Level 5: growth control rate is above 85%),5 (Level 5: growth control rate is above 85%),5 (Level 5: growth control rate is above 85%),5 (Level 5: growth control rate is above 85%)
COc1c(C(=O)Nc2nnc(C)o2)ccc(C(F)(F)F)c1[S@+]([O-])CCCl [Compound 332],5 (Level 5: growth control rate is above 85%),5 (Level 5: growth control rate is above 85%),5 (Level 5: growth control rate is above 85%),5 (Level 5: growth control rate is above 85%),5 (Level 5: growth control rate is above 85%)
COc1c(C(=O)Nc2nnc(C)o2)ccc(C(F)(F)F)c1[S@+]([O-])CCCCl [Compound 333],5 (Level 5: growth control rate is above 85%),5 (Level 5: growth control rate is above 85%),5 (Level 5: growth control rate is above 85%),5 (Level 5: growth control rate is above 85%),5 (Level 5: growth control rate is above 85%)
COc1c(C(=O)Nc2nnc(C)o2)ccc(C(F)(F)F)c1[S@+]([O-])CCO [Compound 334],5 (Level 5: growth control rate is above 85%),5 (Level 5: growth control rate is above 85%),5 (Level 5: growth control rate is above 85%),5 (Level 5: growth control rate is above 85%),5 (Level 5: growth control rate is above 85%)
COc1c(C(=O)Nc2nnc(C)o2)ccc(C(F)(F)F)c1[S@+]([O-])CCCO [Compound 335],5 (Level 5: growth control rate is above 85%),5 (Level 5: growth control rate is above 85%),5 (Level 5: growth control rate is above 85%),5 (Level 5: growth control rate is above 85%),5 (Level 5: growth control rate is above 85%)
